This passage reports RAGE agonist activity, Pentosidine and production of pentosidine results from patent US20130287890A1, “INHIBITOR OF THE PRODUCTION OF ADVANCED GLYCATION END PRODUCTS” (UENO FINE CHEMICALS INDUSTRY, LTD., priority 2012, published 2013).

One assay addresses T1, human RAGE (Homo sapiens, UniProt Q15109).
T1 construct: human RAGE plasmid (including full-length human RAGE cDNA); expressed in transfected cells; host or cells: C6 glioma cells carrying pNF-κB-Luc plasmid and human RAGE plasmid
Description: RAGE agonist activity of reaction samples (37° C., 42 days), NF-κB luciferase assay in C6 glioma cells. In kind it is cell-based, rat. The procedure:
(§1) Amino acid, carbohydrates and a phosphate buffer solution were charged in a 50 mL polypropylene centrifuge tube in each amount shown in Table 10, followed by sealing and stirring, and then the mixture was reacted in an incubator at 37° C. for 42 days. Next, the reactant was filtered through a 0.2 μm filter and the obtained filtrate was used as a sample. Amino acid and carbohydrates used are as follows:
Using Luciferase Assay System (manufactured by Promega Corporation), evaluation of RAGE agonist activity was performed. (Day 1) According to the methods disclosed in Diabetes, 2006, vol. 55, pp. 2510-2522, C6 glioma cells into which pNF-κB-Luc plasmid (manufactured by Stratagene Corporation) and human RAGE plasmid (including full-length human RAGE cDNA) have been introduced were seeded at 100 μL/well into a 96-well plate and cultured in a CO2 incubator until the cells were confluent. For the culture, 10% FBS/DMEM medium was used. (Day 2) The medium was removed, and after wells were washed with 300 μL of serum-free DMEM medium, 100 μL of 0.1% FBS/DMEM medium was slowly added. Then, the medium was incubated overnight in a CO2 incubator. (Day 3) The sample was diluted using the medium, and 50 μL of the diluted sample was added to each well. AGE-BSA in which AGE was formed with glyceraldehydes (50 μg/mL) was added to a control well. After incubation in a CO2 incubator for 4 hours, the medium was removed and wells were washed 2 times with 300 μL of PBS (−). Then, 25 μL of 1× lysis buffer was added on ice. After the plate was shaken for 15 seconds, 20 μL of lysate was charged in a new white plate. Further 100 μL of a luciferase assay reagent was added, and a […] was measured by a luminometer. Using 5 μl of lysate, quantitative determination of protein was also performed.
(§2) Biological proteins, carbohydrates and a phosphate buffer solution are charged in a 50 mL polypropylene centrifuge tube in each amount shown in Table 12, followed by sealing and stirring, and then the mixture was reacted in an incubator at 37° C. for 42 days. Next, the reactant was fractionated by centrifugation at 3,000 rpm for 3 hours using an ultrafiltration unit (VIVA SPIN 20, manufactured by Sartorius Corporation). The obtained low molecular weight fraction was used as a sample for determination of 3-DG, while the obtained high molecular weight fraction was used as a sample for the determination of fluorescent AGEs, pentosidine, CML, RAGE agonist activity and RAGE antagonist activity. Biological proteins and carbohydrates used are as follows:
(§3) In the same manner as in Test Example 4, except that the low molecular weight fraction prepared as mentioned above was used as a sample, quantitative determination of 3-DG was performed. In the same manner as in Test Example 4, except that the high molecular weight fraction was filtered through a 0.2 μm filter and the filtrate was used as a sample, fluorescent AGEs, pentosidine, CML, RAGE agonist activity and RAGE antagonist activity were evaluated.
Collagen, carbohydrates and a phosphate buffer solution were charged in a 50 mL polypropylene centrifuge tube in each amount shown in Table 14, followed by sealing and stirring, and then the mixture was reacted in an incubator at 37° C. for 42 days. Next, the reactant was fractionated by centrifugation at 3,000 rpm for 3 hours using an ultrafiltration unit (VIVA SPIN 20, manufactured by Sartorius Corporation). The obtained low molecular weight fraction was used as a sample for determination of 3-DG. Meanwhile, 0.4 g of a high molecular weight fraction and 8 mL of 6N hydrochloric acid were charged in an ampule and the air in the ampule was replaced with nitrogen, and then hydrolysis was performed at 110° C. for 16 hours in a heat block. After reaction, 8 mL of 5N sodium hydroxide was added, and pH was adjusted using 1N hydrochloric acid and 1N sodium hydroxide to make pH within a range of 7.2 to 7.6. Then, the solution was filtered through a 0.2 μm filter. […]

The subject of the next assay is pentosidine. Description: Quantitative determination of pentosidine after reaction at 37° C. for 42 days. Type of assay: biochemical. The conditions noted are these: for Pentosidine: 37° C., 42 days. How it is done: as §1
Using a pentosidine measurement kit “FSK Pentosidine (registered trademark)” (manufactured by Fushimi Pharmaceutical Co., Ltd.), quantitative determination of pentosidine was performed in the following manner. Thirty (30) or more minutes before use, reagents and pentosidine solid-phase plates were put to room temperature. After dilution of the sample, a 50 μL aliquot of the sample was dispensed to a pentosidine solid-phase plate attached to the kit, and 50 μL of a first antibody solution was dispensed into wells other than the wells for measurement of reagent blank value. After the sample and the antibody solution were mixed by shaking the plate at 300 rpm for 1 minute, the solution was reacted at 37° C. for 1 hour. Next, the reaction solution was discarded, and 200 μL of rinsing fluid was dispensed to wash the plate. The washing was performed for 3 times. After liquid on the plate was removed, 100 μl of a second antibody solution was dispensed into wells other than the wells for measurement of reagent blank value. After the solution was mixed by shaking the plate at 300 rpm for 1 minute, the solution was reacted at 25° C. for 1 hour. Then, the reaction solution was discarded, and the plate was washed for 3 times with 200 μL of rinsing fluid again. Liquid on the plate was removed, and 100 μL of a color coupler was dispensed and left to stand for 10 minutes under a light shielding condition. Finally, 100 μL of a reaction stop solution was dispensed, and within 10 minutes after the dispensing, measurement was performed at main wavelength 450 nm/reference wavelength 630 nm using a micro-plate reader. The concentration of pentosidine was determined using the calibration curve of a pentosidine standard solution, based on measurement values of the sample.
as §2, §3
Collagen, carbohydrates and a phosphate buffer solution were charged in a 50 mL polypropylene centrifuge tube in each amount shown in Table 14, followed by sealing and stirring, and then the mixture was reacted in an incubator at 37° C. for 42 days. Next, the reactant was fractionated by centrifugation at 3,000 rpm for 3 hours using an ultrafiltration unit (VIVA SPIN 20, manufactured by Sartorius Corporation). The obtained low molecular weight fraction was used as a sample for determination of 3-DG. […]

Where [1] appears, read: Test Example 4, amino acid + carbohydrate, amount of protein 100 μg/mL, relative to control (AGE-BSA) = 1.
[2] abbreviates: Test Example 5, bovine serum albumin + carbohydrate, protein 100 μg/mL, relative to control (AGE-BSA) = 1.
The mark [3] stands for this setting: Test Example 5, human serum albumin + carbohydrate, protein 100 μg/mL, relative to control (AGE-BSA) = 1.
Setting [4] is: Test Example 5, γ-globulin + carbohydrate, protein 10 μg/mL, relative to control (AGE-BSA) = 1.
[5] abbreviates: Test Example 6, collagen + carbohydrate, protein 10 μg/mL, relative to control (AGE-BSA) = 1.
The mark [6] stands for this setting: Test Example 4, amino acid 0.4 g + carbohydrate 1.8 g.
[7] abbreviates: Test Example 5, bovine serum albumin 0.4 g + carbohydrate 1.8 g.
Where [8] appears, read: Test Example 5, human serum albumin 0.4 g + carbohydrate 1.8 g.
The mark [9] stands for this setting: Test Example 5, γ-globulin 0.4 g + carbohydrate 1.8 g.
The mark [10] stands for this setting: Test Example 6, collagen 0.015 g + carbohydrate 1.8 g, hydrolysed high molecular weight fraction.
Where [11] appears, read: Test Example 5, bovine serum albumin, human serum albumin, γ-globulin, compared with sections containing fructose.
[12] abbreviates: Test Example 5, bovine serum albumin, human serum albumin, γ-globulin, compared with sections containing glucose.
Setting [13] is: Test Example 6, collagen, compared with sections containing glucose and fructose.

Each structure is given as a SMILES string.

T1 sequence (Q15109 23-404): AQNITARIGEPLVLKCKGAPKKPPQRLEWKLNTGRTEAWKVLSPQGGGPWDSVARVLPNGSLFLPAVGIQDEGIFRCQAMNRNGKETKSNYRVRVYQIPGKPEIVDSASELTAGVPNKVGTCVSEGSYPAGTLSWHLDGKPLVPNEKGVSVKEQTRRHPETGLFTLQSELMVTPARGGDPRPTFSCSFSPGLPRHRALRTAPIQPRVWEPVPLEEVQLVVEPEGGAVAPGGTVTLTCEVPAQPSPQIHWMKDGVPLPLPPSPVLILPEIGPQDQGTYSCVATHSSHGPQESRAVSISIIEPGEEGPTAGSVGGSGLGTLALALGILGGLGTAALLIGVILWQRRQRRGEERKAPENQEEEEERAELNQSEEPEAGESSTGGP

For `O=C[C@H](O)[C@@H](O)[C@H](O)[C@H](O)CO` [Glucose], the RAGE agonist activity on human RAGE (setting [1]) amounted to 0.06; at human RAGE (setting [2]), 0.37; at human RAGE (setting [3]), 0.01; at human RAGE (setting [4]), 0.06; on human RAGE (setting [5]) it was 0.45. The Pentosidine in the assay on pentosidine (setting [6]) is 5.8 nmol/1 mL of reaction solution; in the assay with pentosidine (setting [7]), 0.01 nmol/1 mL of reaction solution; in the assay on pentosidine (setting [8]), 0.02 nmol/1 mL of reaction solution; in the assay on pentosidine (setting [9]), 0.002 nmol/1 mL of reaction solution; in the assay on pentosidine (setting [10]), 0.06 nmol/1 mL of reaction solution.
Take `O=C(CO)[C@@H](O)[C@H](O)[C@H](O)CO` [Fructose]: the RAGE agonist activity was 0.08 on human RAGE (setting [1]); 0.33 on human RAGE (setting [2]); 0.02 on human RAGE (setting [3]); 0.04 on human RAGE (setting [4]); 0.58 at human RAGE (setting [5]). For the same compound, the Pentosidine is reported as 24.7 nmol/1 mL of reaction solution in the assay on pentosidine (setting [6]); 0.03 nmol/1 mL of reaction solution in the assay with pentosidine (setting [7]); 0.05 nmol/1 mL of reaction solution in the assay on pentosidine (setting [8]); 0.005 nmol/1 mL of reaction solution in the assay on pentosidine (setting [9]); 0.15 nmol/1 mL of reaction solution with pentosidine (setting [10]).
`OC[C@@H](O)[C@@H](O)[C@H](O)[C@@H](O)CO` [Sorbitol]: the RAGE agonist activity is 0.07 at human RAGE (setting [1]); “decreased” at human RAGE (Test Example 4, amino acid, compared with the test section 2 containing fructose); 0.24 at human RAGE (setting [2]); “decreased” on human RAGE (setting [11]); “decreased” at human RAGE (setting [12]); 0.02 on human RAGE (setting [3]). Further, the RAGE agonist activity at human RAGE (setting [4]) is reported as 0.06; at human RAGE (setting [5]) it was 0.27; at human RAGE (setting [13]), “decreased”. For the same compound, the Pentosidine in the assay on pentosidine (setting [6]) is listed as 0.8 nmol/1 mL of reaction solution; with pentosidine (setting [7]) it was 0.03 nmol/1 mL of reaction solution; in the assay with pentosidine (setting [8]), 0.02 nmol/1 mL of reaction solution; in the assay on pentosidine (setting [9]), 0.002 nmol/1 mL of reaction solution; in the assay on pentosidine (setting [10]), 0.05 nmol/1 mL of reaction solution. The production of pentosidine result with pentosidine (Test Example 4, amino acid, compared with sections containing glucose and fructose) was “decreased”; in the assay on pentosidine (setting [11]), “decreased”; in the assay with pentosidine (setting [12]), “decreased”; in the assay on pentosidine (setting [13]) it was “decreased”.
